In patent publication US12590071B2, “Hydrazone derivative in which terminal amine group is substituted with aryl group or heteroaryl group, and use thereof” (KOREA INSTITUTE OF SCIENCE AND TECHNOLOGY, priority 2018, dated 2026):
pIC50: −log10 of the molar value.

Assays:
[1] = Liver microsomal stability (rat); assay type: in vitro ADME; settings: amount of substrate remaining; 1 μM, 0.25 mg/mL microsomes, 37° C., 30 minutes
Procedure: (§1) The liver microsomal stability of the compounds prepared according to Examples 1 to 171 was confirmed. Specifically, four kinds of liver microsomes (human, dog, rat, and mouse, each 0.25 mg/mL), a 0.1 M phosphate buffer solution (pH 7.4), and the compounds with a concentration of 1 μM were added, respectively. Then the mixture was cultured in advance at 37° C. for 5 minutes, and then further cultured at 37° C. for 30 minutes together with the addition of an NADPH generation system solution. Thereafter, a reaction was terminated by adding an acetonitrile solution containing an internal standard material (chloropropamide), centrifugal separation (14,000 rpm, 4° C.) was performed for 5 minutes, and then a supernatant was injected into an LC-MS/MS system. The substrate drugs were analyzed to evaluate the metabolic stability for 8 kinds of compounds.
(§2) The amount of substrate remaining through the reaction was analyzed using the Shimadzu Nexera XR system and TSQ vantage (Thermo). Kinetex XB-C18 (2.1 mm×100 mm, 2.6 μm, particle size; Phenomenex, USA) was used in an HPLC column, and (A) distilled water containing 0.1% formic acid and (B) acetonitrile containing 0.1% formic acid were used as mobile phases. Analyst software (version 1.6.3) and Xcalibur (version 1.6.1) were used for data analysis.

[2] = target: T1, tau protein (Homo sapiens, UniProt P10636); assay: Tau protein aggregation inhibition in tau-BiFC cell model; assay type: cell-based; settings: tau-BiFC cells treated together with Forskolin, 48 hours
T1 construct: expressed in transfected cells
Procedure: (§3) In order to select new tau protein aggregation-inhibiting materials, tau-BiFC cell models, in which it is easy to observe the formation of tau oligomers in living cells, were used. […] After 48 hours, intracellular nuclei were stained using Hoechst (treatment concentration 2 μg/mL), and BiFC fluorescence intensity was automatically quantified using Operetta (PerkinElmer) to count stained nuclei in each well from the total well plates. […] Further, the degree of cytotoxicity induced by the newly synthesized compound is also based on the 100% survival rate of the group treated with Forskolin alone, and the cytotoxicity value of the compound was calculated by the equation “number of stained nuclei in the group treated with the compound/number of stained nuclei in the group treated with Forskolin x 100”.
(§4) In order to evaluate dose-dependent tau protein aggregation inhibition effects of the compounds selected according to Experimental Example 1, the selected compounds were treated in tau-BiFC cells at concentrations of 0.03 µM, […], 0.3 μM, 1 μM, 3 μM, 10 μM, and 30 μM, respectively, together with Forskolin (treatment concentration 30 µM) as a tau protein aggregation inducing material. After 48 hours, tau protein aggregation reaction and cytotoxicity degree were analyzed by observing cell images. The IC50 and toxicity of the compounds were analyzed by nonlinear regression analysis of prism software (Graph Pad).

[3] = Liver microsomal stability (dog); assay type: in vitro ADME; settings: amount of substrate remaining; 1 μM, 0.25 mg/mL microsomes, 37° C., 30 minutes
Procedure: as §1, §2

[4] = Liver microsomal stability (mouse); assay type: in vitro ADME; settings: amount of substrate remaining; 1 μM, 0.25 mg/mL microsomes, 37° C., 30 minutes
Procedure: as §1, §2

[5] = target: T2, CYP2D6 (Homo sapiens, UniProt P10635); assay: Inhibition of CYP coenzyme activity in human liver microsomes; assay type: in vitro ADME; settings: compound 10 PM (so in the source); human liver microsomes 0.25 mg/mL; substrate dextromethorphan; 15 minutes
T2 construct: human liver microsomes (0.25 mg/mL); from tissue; host or cells: human liver microsomes
Procedure: (§5) 5 The inhibition effects of CYP coenzyme activity by the compounds prepared according to Examples 1 to 171 was confirmed. Specifically, human liver microsomes (0.25 mg/mL), a 0.1 M phosphate buffer solution (pH 7.4), substrate drug cocktails (phenacetin 50 μM, diclofenac 10 μM, S-mephenytoin 100 μM, dextromethorphan 5 μM, and midazolam 2.5 μM) of five kinds of drug metabolism enzymes, and the compounds with a concentration of 0 μM or 10 PM were added, respectively. Then the mixture was cultured in advance at 37° C. for 5 minutes, and then further cultured at 37° C. for 15 minutes together with the addition of an NADPH generation system solution. Thereafter, a reaction was terminated by adding an acetonitrile solution containing an internal standard material (terfenadine), centrifugal separation (14,000 rpm, 4° C.) was performed for 5 minutes, and then a supernatant was injected into an LC-MS/MS system. Metabolites of the substrate drugs were simultaneously analyzed to evaluate the drug metabolism inhibition ability.
(§6) Metabolites of each CYP coenzyme indicator drug generated through the reaction were analyzed using the Shimadzu Nexera XR system and TSQ vantage (Thermo). Kinetex C18 (2.1 mm×100 mm, 2.6 μm, particle size; Phenomenex, USA) was used in an HPLC column, and (A) distilled water containing 0.1% formic acid and (B) acetonitrile containing 0.1% formic acid were used as mobile phases, and the gradient program shown in Table 2 was applied.
(§7) The generated metabolites were quantified using an MRM (multiple reaction monitoring) quantification mode, and Xcalibur (version 1.6.1) was used for data analysis.

[6] = target: T3, CYP1A2 (Homo sapiens, UniProt P05177); assay: as above; assay type: in vitro ADME; settings: compound 10 PM (so in the source); human liver microsomes 0.25 mg/mL; substrate phenacetin; 15 minutes
T3 construct: human liver microsomes (0.25 mg/mL); from tissue; host or cells: human liver microsomes
T3 sequence (P05177 1-516): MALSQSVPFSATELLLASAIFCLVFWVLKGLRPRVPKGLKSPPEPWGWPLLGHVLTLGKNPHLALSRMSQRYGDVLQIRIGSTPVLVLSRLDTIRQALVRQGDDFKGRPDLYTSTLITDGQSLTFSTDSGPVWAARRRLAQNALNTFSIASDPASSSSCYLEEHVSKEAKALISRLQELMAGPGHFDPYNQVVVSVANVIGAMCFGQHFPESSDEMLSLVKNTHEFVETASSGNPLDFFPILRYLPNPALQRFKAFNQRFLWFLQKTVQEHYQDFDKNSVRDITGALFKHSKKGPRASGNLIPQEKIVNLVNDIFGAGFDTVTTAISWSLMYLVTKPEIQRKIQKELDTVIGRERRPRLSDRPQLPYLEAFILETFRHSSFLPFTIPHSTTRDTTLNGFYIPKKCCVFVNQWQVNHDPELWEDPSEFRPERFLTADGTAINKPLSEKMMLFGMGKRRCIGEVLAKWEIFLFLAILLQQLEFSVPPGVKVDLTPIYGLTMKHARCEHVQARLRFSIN
Procedure: as §5, §6, §7

[7] = target: T4, CYP2C9 (Homo sapiens, UniProt P11712); assay: as above; assay type: in vitro ADME; settings: compound 10 PM (so in the source); human liver microsomes 0.25 mg/mL; substrate diclofenac; 15 minutes
T4 construct: human liver microsomes (0.25 mg/mL); from tissue; host or cells: human liver microsomes
Procedure: as §5, §6, §7

[8] = target: T5, CYP2C19 (Homo sapiens, UniProt P33261); assay: as above; assay type: in vitro ADME; settings: compound 10 PM (so in the source); human liver microsomes 0.25 mg/mL; substrate S-mephenytoin; 15 minutes
T5 construct: human liver microsomes (0.25 mg/mL); from tissue; host or cells: human liver microsomes
Procedure: as §5, §6, §7

[9] = target: T6, CYP3A4 (Homo sapiens, UniProt P08684); assay: as above; assay type: in vitro ADME; set-up: scale not given here; settings: compound 10 PM (so in the source); human liver microsomes 0.25 mg/mL; substrate midazolam; 15 minutes
T6 construct: human liver microsomes (0.25 mg/mL); from tissue; host or cells: human liver microsomes
Procedure: as §5, §6, §7

[10] = tested on: Tau-BiFC cells; assay: Cytotoxicity (cell survival rate) in tau-BiFC cells; settings: group treated with Forskolin alone = 100%
Procedure: as §3, §4

[11] = Liver microsomal stability (human); assay type: in vitro ADME; settings: amount of substrate remaining; 1 μM, 0.25 mg/mL microsomes, 37° C., 30 minutes
Procedure: as §1, §2

T6 sequence (P08684 whole entry): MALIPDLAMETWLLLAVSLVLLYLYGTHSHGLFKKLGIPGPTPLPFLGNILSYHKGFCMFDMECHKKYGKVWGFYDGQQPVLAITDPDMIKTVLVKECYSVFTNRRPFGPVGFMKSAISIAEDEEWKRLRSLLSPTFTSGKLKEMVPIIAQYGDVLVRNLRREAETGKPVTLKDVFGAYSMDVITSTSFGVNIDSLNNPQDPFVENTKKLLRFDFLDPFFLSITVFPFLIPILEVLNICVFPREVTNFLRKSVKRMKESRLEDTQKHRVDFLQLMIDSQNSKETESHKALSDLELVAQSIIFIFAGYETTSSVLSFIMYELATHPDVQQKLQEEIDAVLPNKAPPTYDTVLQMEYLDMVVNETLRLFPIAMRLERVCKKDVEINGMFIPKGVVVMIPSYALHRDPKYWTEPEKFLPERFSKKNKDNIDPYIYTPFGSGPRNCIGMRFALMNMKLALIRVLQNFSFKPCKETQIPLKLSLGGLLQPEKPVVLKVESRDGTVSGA
T5 sequence (P33261 whole entry): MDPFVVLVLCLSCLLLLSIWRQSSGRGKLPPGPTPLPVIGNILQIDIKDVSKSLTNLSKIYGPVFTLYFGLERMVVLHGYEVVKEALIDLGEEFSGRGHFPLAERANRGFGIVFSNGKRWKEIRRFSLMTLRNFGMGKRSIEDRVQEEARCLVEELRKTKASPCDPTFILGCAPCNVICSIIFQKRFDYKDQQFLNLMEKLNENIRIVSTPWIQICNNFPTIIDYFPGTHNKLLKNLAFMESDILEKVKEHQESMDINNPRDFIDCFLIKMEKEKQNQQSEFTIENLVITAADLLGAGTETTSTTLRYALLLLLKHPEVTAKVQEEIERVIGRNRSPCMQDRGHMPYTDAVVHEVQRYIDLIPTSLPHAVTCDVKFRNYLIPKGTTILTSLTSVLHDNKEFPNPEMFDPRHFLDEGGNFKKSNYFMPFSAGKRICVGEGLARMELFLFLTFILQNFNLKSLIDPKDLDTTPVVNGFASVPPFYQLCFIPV
T4 sequence (P11712 whole entry): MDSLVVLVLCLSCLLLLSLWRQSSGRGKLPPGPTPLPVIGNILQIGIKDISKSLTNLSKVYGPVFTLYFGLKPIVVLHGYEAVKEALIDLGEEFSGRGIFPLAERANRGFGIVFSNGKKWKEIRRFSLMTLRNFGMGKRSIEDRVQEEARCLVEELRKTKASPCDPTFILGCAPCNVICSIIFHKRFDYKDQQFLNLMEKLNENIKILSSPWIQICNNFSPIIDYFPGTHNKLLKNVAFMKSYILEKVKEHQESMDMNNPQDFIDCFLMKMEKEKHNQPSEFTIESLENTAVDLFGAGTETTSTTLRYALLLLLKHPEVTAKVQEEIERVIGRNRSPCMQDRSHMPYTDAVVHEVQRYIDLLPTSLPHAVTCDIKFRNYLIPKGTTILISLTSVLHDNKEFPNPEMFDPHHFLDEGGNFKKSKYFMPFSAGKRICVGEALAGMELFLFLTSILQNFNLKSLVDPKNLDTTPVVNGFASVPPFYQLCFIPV
T2 sequence (P10635 whole entry): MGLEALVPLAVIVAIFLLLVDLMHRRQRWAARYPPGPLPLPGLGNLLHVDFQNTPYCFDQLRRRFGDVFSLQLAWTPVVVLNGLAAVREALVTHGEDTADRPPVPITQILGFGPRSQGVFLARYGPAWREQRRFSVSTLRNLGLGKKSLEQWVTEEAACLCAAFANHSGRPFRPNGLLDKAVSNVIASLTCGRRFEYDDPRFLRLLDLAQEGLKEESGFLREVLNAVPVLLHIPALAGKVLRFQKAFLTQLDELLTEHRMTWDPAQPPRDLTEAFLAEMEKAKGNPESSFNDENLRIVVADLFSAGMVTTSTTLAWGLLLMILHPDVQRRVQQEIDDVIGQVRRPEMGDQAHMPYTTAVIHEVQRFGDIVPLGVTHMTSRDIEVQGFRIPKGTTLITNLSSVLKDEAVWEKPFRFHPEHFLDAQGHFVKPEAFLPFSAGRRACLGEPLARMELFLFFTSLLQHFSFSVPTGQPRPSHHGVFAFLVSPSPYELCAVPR
T1 sequence (P10636 2-441 isoform P10636-8 limits assumed): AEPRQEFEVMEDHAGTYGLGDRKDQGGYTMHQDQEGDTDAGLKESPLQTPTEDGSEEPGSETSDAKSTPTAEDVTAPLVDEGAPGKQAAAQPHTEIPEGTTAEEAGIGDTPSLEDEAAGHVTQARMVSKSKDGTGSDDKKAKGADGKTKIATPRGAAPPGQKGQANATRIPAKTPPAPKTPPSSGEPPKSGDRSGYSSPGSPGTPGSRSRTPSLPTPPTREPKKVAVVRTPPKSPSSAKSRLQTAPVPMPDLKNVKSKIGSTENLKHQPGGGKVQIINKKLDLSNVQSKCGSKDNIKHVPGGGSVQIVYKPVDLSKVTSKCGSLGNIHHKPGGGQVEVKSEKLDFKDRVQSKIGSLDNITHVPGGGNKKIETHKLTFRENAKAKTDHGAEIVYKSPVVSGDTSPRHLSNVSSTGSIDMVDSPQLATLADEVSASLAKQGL

SMILES	liver microsomal stability, Rat (%) [1] [%]	pIC50 [2]	liver microsomal stability, Dog (%) [3] [%]	liver microsomal stability, Mouse (%) [4] [%]	inhibition effects of CYP coenzyme activity, CYP2D6 [5]	inhibition effects of CYP coenzyme activity, CYP1A2 [6]	inhibition effects of CYP coenzyme activity, CYP2C9 [7]	inhibition effects of CYP coenzyme activity, CYP2C19 [8]	inhibition effects of CYP coenzyme activity, CYP3A4 [9]	Cell survival rate (% @ 10 μM) [10] [%]	liver microsomal stability, Human (%) [11] [%]
Cc1ccnc(-c2ccc(NN=C(C#N)C#N)c(F)c2)n1 [Compound 37, (2-fluoro-4-(4-methylpyrimidin-2-yl)phenyl)carbonohydrazonoyl dicyanide]	25.9	5.87	61	32.7	>100	78.1	56.9	100	>100	88.3	55.7
N#CC(C#N)=NNc1ccc(-n2cccn2)cc1 [Compound 35, (4-(1H-pyrazol-1-yl)phenyl)carbonohydrazonoyl dicyanide]	56.4	5.77	24.2	10.7	>100	99.9	81.3	>100	>100	100	82.2
COc1cnc(-c2ccc(NN=C(C#N)C#N)cc2)nc1 [Compound 8, (4-(5-methoxypyrimidin-2-yl)-phenyl)carbonohydrazonoyl dicyanide]	40.7	7.70	96	83.7	>100	94.1	85.1	>100	>100	107.8	80.9
Cn1cc2c(-c3ccc(NN=C(C#N)C#N)cc3)cccc2n1 [Compound 55, (4-(2-methyl-2H-indazol-4-yl)phenyl)carbonohydrazonoyl dicyanide]	60.8	6.00	85.6	71.2	>100	66.9	59.5	86	87.6	120.1	70
N#CC(C#N)=NNc1ccc2[nH]ncc2c1 [Compound 69, (1H-indazol-5-yl)carbonohydrazonoyl dicyanide]	64.4	6.72	71.9	34.2	>100	80.1	16.6	82.1	95.2	204.7	97.6
Cc1ncsc1-c1ccc(NN=C(C#N)C#N)cc1 [Compound 12, (4-(4-methylthiazol-5-yl)phenyl)carbonohydrazonoyl dicyanide]	25.8	7.52	81.6	45.2	87.8	88.1	7.4	81.3	91.6	119.3	52.2
CN(C)c1ccc(-c2ccc(NN=C(C#N)C#N)cc2)cc1 [Compound 151, (4′-(dimethylamino)biphenyl-4-yl)carbohydrazonoyl dicyanide]	85.2	6.19	83.6	94.6	94.6	94.4	83.6	85.2	94.4	69.5	94.4
Cn1ncc2ccc(NN=C(C#N)C#N)cc21 [Compound 63, (1-methyl-1H-indazol-6-yl)carbonohydrazonoyl dicyanide]	72.1	6.13	82.6	9.5	>100	43.3	84.2	>100	>100	111.4	87.4
